Data taken from patent US10697970B2, “S100A9 levels for predicting lenalidomide and erythropoietin responsiveness” (H. LEE MOFFITT CANCER CENTER AND RESEARCH INSTITUTE, INC., priority 2015, dated 2020).

What was measured:
[1] = test system: HepG2 cells; assay: Epo elaboration by HepG2 cells (ELISA); assay type: cell-based, human
Experimental: HepG2 cells, acquired from American Type Culture Collection (ATCC, Manassas, Va.), were grown in EMEM supplemented with 10% FBS and 1% penicillin/streptomycin solution. Cells were maintained at 37° C. under 5% CO2.
(§1) Quantitation of human S100A9/MRP14 in patient serum and supernatant of the HepG2 cell line was performed using CircuLex S100A9/MRP14 ELISA Kit (MBL, Nagano, Japan). Quantitative measurement of human TNFα and IL-1β from serum patients and supernatant of HepG2 cell line were performed using Human IL-1β ELISA Kit and Human TNFα ELISA Kit (Life Technologies, Carlsbad, Calif., USA). Quantitation of human Epo in patient serum and HepG2 cell line supernatant was performed using Human Erythropoietin ELISA kit (Stemcell Technologies, Vancouver, BC, Canada). All samples were performed in duplicate.

[2] = test system: HepG2 cells; assay: IL10 mRNA qPCR in HepG2 cells; assay type: cell-based, human
Experimental: RNA was isolated using the RNAeasy Mini Kit (Qiagen, Valencia, Calif., USA) followed by iScript cDNA synthesis (Bio-Rad, Hercules, Calif., USA) and amplification using iQ SYBR Green Supermix (Bio-Rad, Herculed, Calif., USA). The relative level of gene expression for each experimental sample was calculated by the ΔΔCt method. Untreated cells were the experimental control and the housekeeping gene GAPDH was the endogenous control.

[3] = test system: NF-κB; assay: Cytoplasmic and nuclear NF-κB western blotting in HepG2 cells; assay type: cell-based, human; settings: HepG2, 24 h, 1 μM lenalidomide pre-incubation, then S100A9 or TNFα
Experimental: After treatment for 24 h, cells were harvested and lysed in 1×RIPA buffer supplemented with protease and phosphatase inhibitors for classical western blotting. For the nuclear extraction, cells were lysed in ice with buffer A, then pelleted. After removed supernatant (cytoplasmic fraction), pellets were lysed in ice with buffer B and pelleted (nuclear fraction) (Nuclear extraction kit, Abcam, Cambridge, USA). Lysates were pelleted and 50 μg of protein was resolved by SDS-PAGE and transferred to PVDF membranes. The membranes were blocked for 30 min in 5% non-fat dry milk solution in PBST (PBS with 0.1% Tween 20) and incubated with the indicated antibodies. Membranes were developed using ECL according to the manufacturer's protocol (GE Healthcare, Little Chalfont, UK). Densitometry analysis was performed using Image J Software.

[4] = test system: PBMC isolated from non-del(5q) MDS patients; assay: S100A9 production by PBMC from MDS patients (ELISA); assay type: cell-based, human; settings: PBMC from MDS patients (n=7), 1 μM lenalidomide, 24 hours
Experimental: as §1
(§2) Serum samples used for ELISA analysis were collected from 4 centers (Taussig Cancer Institute in Cleveland; AOU Careggi, University of Firenze; Saint Louis hospital in Paris; H. Lee Moffitt Cancer Center in Tampa). Peripheral blood mononuclear cells (PBMC) were collected from patients seen at Moffitt Cancer Center All patients were consented on Institutional Review Boards, or equivalent, approved protocols in hematology clinics at each center, and from the Eastern Cooperative Oncology Group (ECOG) E2905 trial (NCT00843882). All routine clinical and biological data were available.

[5] = test system: MDS PBMC; assay: LPS-induced TNFα production by MDS PBMC; assay type: cell-based, human; settings: MDS PBMC (n=7), 1 μM lenalidomide 30 minutes prior to LPS (1 μg/ml), 24 h
[6] = test system: non-del(5q) MDS patients; assay: Erythroid response to ESA or lenalidomide treatment by serum TNFα / S100A9 concentration; assay type: in vivo, human
Excerpt: as §2
Data are expressed as mean±standard error for continuous variables, or percentage of total for non-continuous variables. Spearman's correlation, Mann-Withney and Jonckheere-Terpstra tests were used for analysis of continuous variables. Chi-square test was used for analysis of non-continuous variables. Differences between the results of comparative tests were considered significant if the two-sided p-value was less than 0.05. All statistical analyses were performed using SPSS v.22 software (IBM SPSS Statistics).

[7] = test system: MDS patients; settings: cited from earlier work
[8] = lenalidomide or lenalidomide + Epo

Q: With `Nc1cccc2c1CN(C1CCC(=O)NC1=O)C2=O` (centres unmarked) [lenalidomide, Lenalidomide] as the compound, how does the “effect on IL-1β-directed suppression of Epo elaboration” value ([1]; HepG2, 1 μM lenalidomide 30 minutes prior to IL-1β (10 ng/ml)) read?
A: The value was “no effect”.

Q: What about the “suppression of Epo production by S100A9 after lenalidomide pre-incubation” value ([1]; HepG2, 1 μM lenalidomide 30 minutes prior to S100A9 (1 μg/ml)) of the same compound?
A: Its value is 65%.

Q: What about the “suppression of Epo elaboration by TNFα after lenalidomide pre-incubation” value ([1]; HepG2, 1 μM lenalidomide 30 minutes prior to TNFα (10 ng/ml)) of the same compound?
A: Its value is 0%.

Q: What about the “IL10 gene message following IL-1β treatment” value ([2]; HepG2, 1 μM lenalidomide pre-incubation) of the same compound?
A: Its value is “no modulatory effect”.

Q: What about the “IL10 mRNA expression compared to S100A9 or TNFα treatment alone” value ([2]; HepG2, 24 h, 1 μM lenalidomide 30 minutes prior to S100A9 (1 μg/ml) or TNFα (10 ng/ml)) of the same compound?
A: The value was “significantly increased”.

Q: What about the “NF-κB in nuclear fractions” value [3] of the same compound?
A: Its value is “significant reduction”.

Q: What about the S100A9 elaboration [4] of the same compound?
A: Its S100A9 elaboration is “significant reduction”.

Q: What about the “TNFα production induced by LPS” value [5] of the same compound?
A: Its value is “significantly reduced”.

Q: What about the “erythroid response rate, high (above the median) serum TNFα” value [6, 8] of the same compound?
A: The value was 14%.

Q: What about the “erythroid response rate, low (below the median) serum TNFα” value [6, 8] of the same compound?
A: Its value is 64%.

Q: And the “erythroid response rate, high TNFα and low S100A9” value ([6]; lenalidomide treatment)?
A: The value was 12%.

Q: What about the “erythroid response rate, low TNFα and high S100A9 concentrations” value ([6]; lenalidomide treatment) of the same compound?
A: The value was 62%.

Q: And the “response in patients with an interstitial deletion of Chromosome 5q” value ([7]; MDS patients with del 5q)?
A: The value was “high rate of response”.

Q: What about the “patients without 5q deletions who benefit from therapy” value ([7]; MDS patients without 5q deletions) of the same compound?
A: The value was “Approximately 25%”.
